# Measured values: PubChem BioAssay (NCI)
# Several values for one entry are separate records, joined by “and”; a condition that tells them apart may be missing. Equal values may be shown once.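 Following 48 hours of exposure in 96-well plates, responses at five concentrations were used to interpolate endpoints linearly. GI50 is the concentration that inhibits growth by half. TGI: total growth inhibition.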
# Tests used:
# Assay in all cases: NCI tumour cell line growth inhibition, 48 h
# 786-0 renal = system: 786-0 renal
# A498 renal = system: A498 renal
# A549 NSCLC = system: A549 NSCLC
# ACHN renal = system: ACHN renal
# CAKI-1 renal = system: CAKI-1 renal
# CCRF-CEM leukemia = system: CCRF-CEM leukemia
# COLO 205 colon = system: COLO 205 colon
# DLD-1 colon = system: DLD-1 colon
# DMS 114 small cell lung = system: DMS 114 small cell lung
# DMS 273 small cell lung = system: DMS 273 small cell lung
# EKVX NSCLC = system: EKVX NSCLC
# HL-60(TB) leukemia = system: HL-60(TB) leukemia
# HOP-18 NSCLC = system: HOP-18 NSCLC
# HOP-62 NSCLC = system: HOP-62 NSCLC
# HOP-92 NSCLC = system: HOP-92 NSCLC
# HT29 colon = system: HT29 colon
# IGROV1 ovarian = system: IGROV1 ovarian
# K-562 leukemia = system: K-562 leukemia
# KM12 colon = system: KM12 colon
# KM20L2 colon = system: KM20L2 colon
# LOX IMVI melanoma = system: LOX IMVI melanoma
# LXFL 529 NSCLC = system: LXFL 529 NSCLC
# M19-MEL melanoma = system: M19-MEL melanoma
# MALME-3M melanoma = system: MALME-3M melanoma
# MOLT-4 leukemia = system: MOLT-4 leukemia
# NCI-H226 lung = system: NCI-H226 lung
# NCI-H23 lung = system: NCI-H23 lung
# NCI-H460 lung = system: NCI-H460 lung
# OVCAR-4 ovarian = system: OVCAR-4 ovarian
# OVCAR-5 ovarian = system: OVCAR-5 ovarian
# OVCAR-8 ovarian = system: OVCAR-8 ovarian
# RXF 393 renal = system: RXF 393 renal
# RXF-631 renal = system: RXF-631 renal
# SF-268 CNS = system: SF-268 CNS
# SF-295 CNS = system: SF-295 CNS
# SF-539 CNS = system: SF-539 CNS
# SK-MEL-2 melanoma = system: SK-MEL-2 melanoma
# SK-MEL-28 melanoma = system: SK-MEL-28 melanoma
# SK-MEL-5 melanoma = system: SK-MEL-5 melanoma
# SK-OV-3 ovarian = system: SK-OV-3 ovarian
# SN12C renal = system: SN12C renal
# SNB-19 CNS = system: SNB-19 CNS
# SNB-78 CNS = system: SNB-78 CNS
# SR leukemia = system: SR leukemia
# SW-620 colon = system: SW-620 colon
# TK-10 renal = system: TK-10 renal
# U251 CNS = system: U251 CNS
# UACC-257 melanoma = system: UACC-257 melanoma
# UACC-62 melanoma = system: UACC-62 melanoma
# UO-31 renal = system: UO-31 renal
# XF 498 CNS = system: XF 498 CNS
# DU-145 prostate = system: DU-145 prostate
# HS 578T breast = system: HS 578T breast
# MDA-N = system: MDA-N
# P388 leukemia = system: P388 leukemia
# P388/ADR leukemia = system: P388/ADR leukemia
# SN12K1 renal = system: SN12K1 renal
# SNB-75 CNS = system: SNB-75 CNS
# BT-549 breast = system: BT-549 breast
# HCC-2998 colon = system: HCC-2998 colon
# HCT-116 colon = system: HCT-116 colon
# HCT-15 colon = system: HCT-15 colon
# M14 melanoma = system: M14 melanoma
# MCF7 breast = system: MCF7 breast
# MDA-MB-231 breast = system: MDA-MB-231 breast
# MDA-MB-435 = system: MDA-MB-435
# NCI-H522 lung = system: NCI-H522 lung
# NCI/ADR-RES ovarian = system: NCI/ADR-RES ovarian
# OVCAR-3 ovarian = system: OVCAR-3 ovarian
# PC-3 prostate = system: PC-3 prostate
# RPMI-8226 leukemia = system: RPMI-8226 leukemia
# T-47D breast = system: T-47D breast
structure (smiles),measurement,setting,value
O=[N+]([O-])c1ccc(C2SCc3nc4ccccc4n32)cc1 (stereo not drawn),TGI,786-0 renal,> 100 µM
same,TGI,A498 renal,> 100 µM
same,TGI,A549 NSCLC,> 100 µM
same,TGI,ACHN renal,> 100 µM
same,TGI,CAKI-1 renal,> 100 µM
same,TGI,CCRF-CEM leukemia,> 100 µM
same,TGI,COLO 205 colon,> 100 µM
same,TGI,DLD-1 colon,> 100 µM
same,TGI,DMS 114 small cell lung,> 100 µM
same,TGI,DMS 273 small cell lung,> 100 µM
same,TGI,EKVX NSCLC,> 100 µM
same,TGI,HL-60(TB) leukemia,> 100 µM
same,TGI,HOP-18 NSCLC,> 100 µM
same,TGI,HOP-62 NSCLC,> 100 µM
same,TGI,HOP-92 NSCLC,91.3 µM
same,TGI,HT29 colon,> 100 µM
same,TGI,IGROV1 ovarian,60.2 µM
same,TGI,K-562 leukemia,> 100 µM
same,TGI,KM12 colon,> 100 µM
same,TGI,KM20L2 colon,> 100 µM
same,TGI,LOX IMVI melanoma,> 100 µM
same,TGI,LXFL 529 NSCLC,> 100 µM
same,TGI,M19-MEL melanoma,> 100 µM
same,TGI,MALME-3M melanoma,> 100 µM
same,TGI,MOLT-4 leukemia,> 100 µM
same,TGI,NCI-H226 lung,> 100 µM
same,TGI,NCI-H23 lung,> 100 µM
same,TGI,NCI-H460 lung,> 100 µM
same,TGI,OVCAR-4 ovarian,> 100 µM
same,TGI,OVCAR-5 ovarian,> 100 µM
same,TGI,OVCAR-8 ovarian,> 100 µM
same,TGI,RXF 393 renal,> 100 µM
same,TGI,RXF-631 renal,> 100 µM
same,TGI,SF-268 CNS,> 100 µM
same,TGI,SF-295 CNS,> 100 µM
same,TGI,SF-539 CNS,> 100 µM
same,TGI,SK-MEL-2 melanoma,> 100 µM
same,TGI,SK-MEL-28 melanoma,> 100 µM
same,TGI,SK-MEL-5 melanoma,39.2 µM
same,TGI,SK-OV-3 ovarian,> 100 µM
same,TGI,SN12C renal,> 100 µM
same,TGI,SNB-19 CNS,> 100 µM
same,TGI,SNB-78 CNS,> 100 µM
same,TGI,SR leukemia,> 100 µM
same,TGI,SW-620 colon,> 100 µM
same,TGI,TK-10 renal,> 100 µM
same,TGI,U251 CNS,> 100 µM
same,TGI,UACC-257 melanoma,> 100 µM
same,TGI,UACC-62 melanoma,> 100 µM
same,TGI,UO-31 renal,> 100 µM
same,TGI,XF 498 CNS,80.6 µM
CC[C@]1(O)C[C@H]2CN(CCc3c([nH]c4ccccc34)[C@@](C(=O)OC)(c3cc4c(cc3OC)N(C)[C@H]3[C@@](O)(C(=O)OC)[C@H](OC(C)=O)[C@]5(CC)C=CCN6CC[C@]43[C@@H]65)C2)C1,GI50,ACHN renal,0.0527 nM
same,TGI,DLD-1 colon,2.5 µM
same,TGI,DMS 114 small cell lung,0.00581 µM
same,TGI,DMS 273 small cell lung,0.123 µM
same,GI50,DU-145 prostate,7.48 pM
same,TGI,HOP-18 NSCLC,1.51 µM
same,TGI,HS 578T breast,0.24 µM and 1.37 µM
same,TGI,HT29 colon,0.124 µM
same,GI50,KM20L2 colon,0.025 nM
same,TGI,KM20L2 colon,0.00183 µM
same,TGI,LXFL 529 NSCLC,1.06 µM
same,TGI,MDA-N,0.00025 µM and 0.000771 µM
same,TGI,P388 leukemia,0.139 µM
same,TGI,P388/ADR leukemia,0.931 µM
same,GI50,RXF 393 renal,0.00135 µM
same,TGI,RXF-631 renal,1.03 µM
same,GI50,SK-MEL-28 melanoma,7.41 pM
same,TGI,SN12K1 renal,0.0027 µM
same,TGI,SNB-75 CNS,0.025 µM and 0.0807 µM
same,TGI,SNB-78 CNS,1.7 µM
same,GI50,SR leukemia,< 2.5 pM
same,TGI,UACC-257 melanoma,1.89 µM and 2.5 µM and 16.1 µM
same,TGI,XF 498 CNS,0.0333 µM
Cc1cc(N(CCC#N)CCC#N)ccc1/C=C(\NC(=O)/C=C/c1ccccc1)C(=O)Nc1ccc(Cl)cc1,TGI,786-0 renal,> 100 µM
same,TGI,A498 renal,> 100 µM
same,TGI,A549 NSCLC,> 100 µM
same,TGI,ACHN renal,> 100 µM
same,TGI,BT-549 breast,> 100 µM
same,TGI,CAKI-1 renal,98 µM
same,TGI,CCRF-CEM leukemia,> 100 µM
same,TGI,COLO 205 colon,12.7 µM
same,TGI,DLD-1 colon,> 100 µM
same,TGI,DMS 114 small cell lung,> 100 µM
same,TGI,DMS 273 small cell lung,> 100 µM
same,TGI,DU-145 prostate,> 100 µM
same,TGI,EKVX NSCLC,> 100 µM
same,TGI,HCC-2998 colon,> 58.7 µM
same,TGI,HCT-116 colon,> 100 µM
same,TGI,HCT-15 colon,> 100 µM
same,TGI,HL-60(TB) leukemia,> 100 µM
same,TGI,HOP-18 NSCLC,> 100 µM
same,TGI,HOP-62 NSCLC,> 100 µM
same,TGI,HOP-92 NSCLC,> 100 µM
same,TGI,HS 578T breast,> 100 µM
same,TGI,HT29 colon,> 100 µM
same,TGI,IGROV1 ovarian,> 100 µM
same,TGI,K-562 leukemia,> 100 µM
same,TGI,KM12 colon,> 94 µM
same,TGI,KM20L2 colon,> 79.6 µM
same,TGI,LOX IMVI melanoma,> 100 µM
same,TGI,LXFL 529 NSCLC,> 100 µM
same,TGI,M14 melanoma,> 100 µM
same,TGI,M19-MEL melanoma,> 38.1 µM
same,TGI,MALME-3M melanoma,> 50.9 µM
same,TGI,MCF7 breast,> 100 µM
same,TGI,MDA-MB-231 breast,> 100 µM
same,TGI,MDA-MB-435,> 100 µM
same,TGI,MDA-N,> 100 µM
same,TGI,MOLT-4 leukemia,> 100 µM
same,TGI,NCI-H226 lung,> 100 µM
same,TGI,NCI-H23 lung,> 100 µM
same,TGI,NCI-H460 lung,> 100 µM
same,TGI,NCI-H522 lung,> 100 µM
same,TGI,NCI/ADR-RES ovarian,> 100 µM
same,TGI,OVCAR-3 ovarian,> 100 µM
same,TGI,OVCAR-4 ovarian,> 100 µM
same,TGI,OVCAR-5 ovarian,> 100 µM
same,TGI,OVCAR-8 ovarian,> 100 µM
same,TGI,PC-3 prostate,> 100 µM
same,TGI,RPMI-8226 leukemia,> 100 µM
same,TGI,RXF 393 renal,> 100 µM
same,TGI,RXF-631 renal,> 100 µM
same,TGI,SF-268 CNS,> 100 µM
same,TGI,SF-295 CNS,> 100 µM
same,TGI,SF-539 CNS,> 100 µM
same,TGI,SK-MEL-2 melanoma,> 100 µM
same,TGI,SK-MEL-28 melanoma,> 100 µM
same,TGI,SK-MEL-5 melanoma,5.95 µM
same,TGI,SK-OV-3 ovarian,> 100 µM
same,TGI,SN12C renal,> 100 µM
same,TGI,SNB-19 CNS,> 100 µM
same,TGI,SNB-75 CNS,> 100 µM
same,TGI,SNB-78 CNS,> 100 µM
same,TGI,SR leukemia,> 100 µM
same,TGI,SW-620 colon,> 100 µM
same,TGI,T-47D breast,> 100 µM
same,TGI,TK-10 renal,> 100 µM
same,TGI,U251 CNS,> 43.9 µM
same,TGI,UACC-257 melanoma,> 100 µM
same,TGI,UACC-62 melanoma,> 14.7 µM
same,TGI,UO-31 renal,> 100 µM
same,TGI,XF 498 CNS,> 100 µM
